From patent publication US20240199558A1, “2,4,6-TRISUBSTITUTED 1,3,5-TRIAZINES AS MODULATORS OF CX3CR1” (ASTRAZENECA AB, priority 2022, published 2024)

Assays:
CX3CR1 [1] = target: T1, CX3CR1 (Homo sapiens (Human), UniProt P49238); test: hCX3CR1 [125I]-CX3CL1 displacement binding (SPA); conditions: CHO-hCX3CR1 membranes, [125I]-CX3CL1, SPA beads
Procedure: hCX3CR1 [^125I]-CX3CL1 Displacement Binding (SPA)
CHO-hCX3CR1 membranes (3 μg per well) together with […] [^125I]-CX3CL1 (Perkin Elmer) and different concentrations of competitor compound were incubated together with 400 μg/well WGA coated PVT SPA beads (Perkin Elmer) in 50 mM HEPES (pH 7.4), 10 mM MgCl2, 1 mM EDTA and 0.1% Gelatin in a Greiner polystyrene flat-bottom 384-well plate. The plate was incubated for 20 h at room temperature before the radioactivity was measured using a MicroBeta Trilux reader (PerkinElmer). The DMSO concentration was held constant at 1%.

CX3CR1 [2] = target: T1, CX3CR1; test: hCX3CR1 [3H]-AZD8797 competitive binding assay (filter); conditions: CHO-hCX3CR1 membranes, 2 nM [3H]-AZD8797
In short: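 Filtration radioligand displacement assay: competitor titrations compete with 2 nM [3H]-AZD8797 for membranes from CHO cells expressing hCX3CR1 (9 μg/well). Incubation was 2 h at room temperature in HEPES pH 7.4 with MgCl2, CaCl2, 0.5% BSA and 1% DMSO. Filters were washed with ice-cold high-salt (500 mM NaCl) buffer, and retained radioactivity was scintillation-counted.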

T1 sequence (P49238 whole entry): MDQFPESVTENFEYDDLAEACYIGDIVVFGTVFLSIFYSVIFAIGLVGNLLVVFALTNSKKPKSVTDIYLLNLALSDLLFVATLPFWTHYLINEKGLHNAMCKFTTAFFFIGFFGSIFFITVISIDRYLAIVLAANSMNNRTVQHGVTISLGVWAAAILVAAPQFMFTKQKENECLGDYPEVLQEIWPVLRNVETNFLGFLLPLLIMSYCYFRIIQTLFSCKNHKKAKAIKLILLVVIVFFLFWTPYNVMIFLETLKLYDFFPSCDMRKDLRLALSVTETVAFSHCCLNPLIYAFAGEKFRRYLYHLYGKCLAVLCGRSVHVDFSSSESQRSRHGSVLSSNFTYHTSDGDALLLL

IC50 (CX3CR1 [1]) [nM] | IC50 (CX3CR1 [2]) [nM] | Structure (SMILES)
348 | 173 | CC(C)C[C@H](CO)Nc1nc(C[C@@H](C)c2ccc(Cl)cc2F)nc(NS(C)(=O)=O)n1 (single isomer, unassigned) [Example 84, N-(4-((R*)-2-(4-Chloro-2-fluorophenyl)propyl)-6-(((R)-1-hydroxy-4-methylpentan-2-yl)amino)-1,3,5-triazin-2-yl)methanesulfonamide]
16700 | 758 | COc1ncccc1[C@@H](C)Cc1nc(N[C@@H](CO)CC(C)C)nc(NS(C)(=O)=O)n1 (single isomer, unassigned) [Example 18, N-(4-(((R)-1-Hydroxy-4-methylpentan-2-yl)amino)-6-((S*)-2-(2-methoxypyridin-3-yl)propyl)-1,3,5-triazin-2-yl)methanesulfonamide]
> 30000 | > 10000 | CC(C)C[C@H](CO)Nc1nc(C[C@H](C)c2cnc(C3CC3)nc2)nc(NS(C)(=O)=O)n1 (single isomer, unassigned) [Example 11, N-(4-((S*)-2-(2-Cyclopropylpyrimidin-5-yl)propyl)-6-(((R)-1-hydroxy-4-methylpentan-2-yl)amino)-1,3,5-triazin-2-yl)methanesulfonamide]
> 10000 |  | CC(C)C[C@H](CO)Nc1nc(C[C@H](C)c2ccccc2)nc(NS(C)(=O)=O)n1 (single isomer, unassigned) [Example 147, N-(4-(((R)-1-Hydroxy-4-methylpentan-2-yl)amino)-6-((S*)-2-phenylpropyl)-1,3,5-triazin-2-yl)methanesulfonamide]
895 | 239 | CC(C)C[C@H](CO)Nc1nc(C[C@H](C)c2ccc(F)cc2F)nc(NS(C)(=O)=O)n1 (single isomer, unassigned) [Example 5, N-(4-((S*)-2-(2,4-Difluorophenyl)propyl)-6-(((R)-1-hydroxy-4-methylpentan-2-yl)amino)-1,3,5-triazin-2-yl)methanesulfonamide]
> 20000 | 922 | COc1ncc([C@@H](C)Cc2nc(N[C@@H](CO)CC(C)C)nc(NS(C)(=O)=O)n2)cc1Cl (single isomer, unassigned) [Example 10, N-(4-((S*)-2-(5-Chloro-6-methoxypyridin-3-yl)propyl)-6-(((R)-1-hydroxy-4-methylpentan-2-yl)amino)-1,3,5-triazin-2-yl)methanesulfonamide]
1970 |  | CC(C)C[C@H](CO)Nc1nc(C[C@H](C)c2ccc(Cl)c(Cl)c2)nc(NS(C)(=O)=O)n1 (relative stereo) [Example 1, N-(4-((R*)-2-(3,4-Dichlorophenyl)propyl)-6-(((R)-1-hydroxy-4-methylpentan-2-yl)amino)-1,3,5-triazin-2-yl)methanesulfonamide]
1830 | 359 | CCOc1cc(C(C)Cc2nc(N[C@@H](CO)CC(C)C)nc(NS(C)(=O)=O)n2)ccn1 (stereo partly drawn) [Example 67, N-(4-(2-(2-Ethoxypyridin-4-yl)propyl)-6-(((R)-1-hydroxy-4-methylpentan-2-yl)amino)-1,3,5-triazin-2-yl)methanesulfonamide]
> 30000 | 4930 | COc1ncc([C@@H](C)Cc2nc(N[C@@H](CO)CC(C)C)nc(NS(C)(=O)=O)n2)cc1C (single isomer, unassigned) [Example 16, N-(4-(((R)-1-Hydroxy-4-methylpentan-2-yl)amino)-6-((S*)-2-(6-methoxy-5-methylpyridin-3-yl)propyl)-1,3,5-triazin-2-yl)methanesulfonamide]
11000 | 528 | COc1ccc([C@@H](C)Cc2nc(N[C@@H](CO)CC(C)C)nc(NS(C)(=O)=O)n2)c(OC)n1 (single isomer, unassigned) [Example 53, N-(4-((S*)-2-(2,6-Dimethoxypyridin-3-yl)propyl)-6-(((R)-1-hydroxy-4-methylpentan-2-yl)amino)-1,3,5-triazin-2-yl)methanesulfonamide]
448 | 124 | CC(C)C[C@H](CO)Nc1nc(C[C@H](C)c2cccc(Cl)c2F)nc(NS(C)(=O)=O)n1 (single isomer, unassigned) [Example 3, N-(4-((S*)-2-(3-Chloro-2-fluorophenyl)propyl)-6-(((R)-1-hydroxy-4-methylpentan-2-yl)amino)-1,3,5-triazin-2-yl)methanesulfonamide]
5520 | 450 | COc1ccc([C@H](C)Cc2nc(N[C@@H](CO)CC(C)C)nc(NS(C)(=O)=O)n2)c(OC)n1 (single isomer, unassigned) [Example 52, N-(4-((R*)-2-(2,6-Dimethoxypyridin-3-yl)propyl)-6-(((R)-1-hydroxy-4-methylpentan-2-yl)amino)-1,3,5-triazin-2-yl)methanesulfonamide]
13500 | 1350 | CC(C)C[C@H](CO)Nc1nc(C[C@H](C)c2ccnc(Cl)c2)nc(NS(C)(=O)=O)n1 (single isomer, unassigned) [Example 25, N-(4-((S*)-2-(2-Chloropyridin-4-yl)propyl)-6-(((R)-1-hydroxy-4-methylpentan-2-yl)amino)-1,3,5-triazin-2-yl)methanesulfonamide]
2990 | 252 | COc1ncc([C@H](C)Cc2nc(N[C@@H](CO)CC(C)C)nc(NS(C)(=O)=O)n2)cc1C (single isomer, unassigned) [Example 15, N-(4-(((R)-1-Hydroxy-4-methylpentan-2-yl)amino)-6-((R*)-2-(6-methoxy-5-methylpyridin-3-yl)propyl)-1,3,5-triazin-2-yl)methanesulfonamide]
4370 | 307 | COc1ncccc1[C@H](C)Cc1nc(N[C@@H](CO)CC(C)C)nc(NS(C)(=O)=O)n1 (single isomer, unassigned) [Example 17, N-(4-(((R)-1-Hydroxy-4-methylpentan-2-yl)amino)-6-((R*)-2-(2-methoxypyridin-3-yl)propyl)-1,3,5-triazin-2-yl)methanesulfonamide]
> 20000 | 1350 | COc1ncc([C@@H](C)Cc2nc(N[C@@H](CO)CC(C)C)nc(NS(C)(=O)=O)n2)cc1F (single isomer, unassigned) [Example 8, N-(4-((S*)-2-(5-Fluoro-6-methoxypyridin-3-yl)propyl)-6-(((R)-1-hydroxy-4-methylpentan-2-yl)amino)-1,3,5-triazin-2-yl)methanesulfonamide]
682 | 44 | CC(C)C[C@H](CO)Nc1nc(CC(C)c2ccnc(Cl)c2)nc(NS(C)(=O)=O)n1 (stereo in doubt) [Example 26, N-(4-((R*)-2-(2-chloropyridin-4-yl)propyl)-6-(((R)-1-hydroxy-4-methylpentan-2-yl)amino)-1,3,5-triazin-2-yl)methanesulfonamide]
362 | 361 | CC(C)C[C@H](CO)Nc1nc(C[C@@H](C)c2ccc(Cl)c(Cl)c2)nc(NS(C)(=O)=O)n1 (single isomer, unassigned) [Example 2, N-(4-((S*)-2-(3,4-Dichlorophenyl)propyl)-6-(((R)-1-hydroxy-4-methylpentan-2-yl)amino)-1,3,5-triazin-2-yl)methanesulfonamide]
4900 | 2210 | CC(C)C[C@H](CO)Nc1nc(C[C@H](C)c2ccc(F)cc2)nc(NS(C)(=O)=O)n1 (single isomer, unassigned) [Example 80, N-(4-((S*)-2-(4-Fluorophenyl)propyl)-6-(((R)-1-hydroxy-4-methylpentan-2-yl)amino)-1,3,5-triazin-2-yl)methanesulfonamide]
4250 | 614 | COc1cc(C)c([C@H](C)Cc2nc(N[C@@H](CO)CC(C)C)nc(NS(C)(=O)=O)n2)cn1 (single isomer, unassigned) [Example 13, N-(4-(((R)-1-Hydroxy-4-methylpentan-2-yl)amino)-6-((R*)-2-(6-methoxy-4-methylpyridin-3-yl)propyl)-1,3,5-triazin-2-yl)methanesulfonamide]
> 10000 | 205 | COc1ncc([C@H](C)Cc2nc(N[C@@H](CO)CC(C)C)nc(NS(C)(=O)=O)n2)cc1Cl (single isomer, unassigned) [Example 9, N-(4-((R*)-2-(5-Chloro-6-methoxypyridin-3-yl)propyl)-6-(((R)-1-hydroxy-4-methylpentan-2-yl)amino)-1,3,5-triazin-2-yl)methanesulfonamide]
987 | 250 | CCC(Cc1nc(N[C@@H](CO)CC(C)C)nc(NS(C)(=O)=O)n1)c1ccccc1F (stereo partly drawn) [Example 89, N-(4-(2-(2-Fluorophenyl)butyl)-6-(((R)-1-hydroxy-4-methylpentan-2-yl)amino)-1,3,5-triazin-2-yl)methanesulfonamide]
